Test results taken from US12303621B2, “Use of self-assembled alkylsilane coatings for drug delivery applications” (priority 2017, dated 2025).

Assay: In vitro release of TC or Rh in simulated body fluid (SBF) from alkylsilane-coated Mg discs
Assay type: physicochemical
Settings: alkylsilane coated Mg disks incubated in SBF, room temperature, 21 day period, sampled every two days; FIG. 1; one way ANOVA highly significant
Protocol: Self-assembled hybrid […] (AS) films on Mg were prepared using a dip-coating technique. The precursor solution was prepared by mixing 0.25 ml (0.73 mM) of […]) (Alfa Aesar, Ward Hill, MA, USA), 0.43 ml (2.92 mM) of […]) (Alfa Aesar, Ward Hill, MA, USA), 2 ml (0.032 mM) of ethanol and 0.25 ml of 0.010 mM HCl (aq.). […] Both the solutions were kept in the dark to avoid contact with light The Mg discs passivated with NaOH were dip coated in the TC- or Rh-containing solution for 1 minute, and dried in air for 10 minutes at room temperature in the dark. The discs were subsequently dried in an incubator at 37° C. for 24 hours to remove any trace amounts of organic solvents. […] Every two days, 150 μl of SBF was taken from each tube and concentrations of Tc and Rh were determined spectroscopically. The concentrations of TC or Rh were determined by measuring absorbance at 280 nm for TC, and fluorescence at excitation/emission wavelengths of 525/555 nm for Rh using a Synergy H1 microplate reader (BioTek instruments, Winooski, VT, USA). Standard curves were created by measuring absorbance and fluorescence intensities of the series of TC and Rh samples of known concentrations. Absorbance and Fluorescence intensity of each sample was calculated as an average of three separate readings. […] Cumulative release of TC or Rh over 21 day period was determined.

rhodamine
concentration in SBF media (cumulative release): incremental increase
